Results from patent US10174037B2, “Dihydropyrazolopyrimidinone compounds as PDE2 inhibitors” (Merck Sharp & Dohme Corp., priority 2015, dated 2019).
Read-outs that look alike come from different tables or passages of the source.

Tests used:
Rhesus PDE2A3 = Rhesus PDE2A3 (Macaca mulatta, UniProt B3VTJ2); experiment: PDE2 fluorescence polarization (IMAP FP) assay, rhesus PDE2A3; type: biochemical, rhesus macaque
human PDE2A1 = human PDE2A1 (Homo sapiens (Human), UniProt O00408); experiment: PDE selectivity IMAP FP assay, human PDE2A1; type: biochemical; settings: Human PDE2
human PDE2A1, sequence (O00408 other isoform, or with tags, fused parts or gaps): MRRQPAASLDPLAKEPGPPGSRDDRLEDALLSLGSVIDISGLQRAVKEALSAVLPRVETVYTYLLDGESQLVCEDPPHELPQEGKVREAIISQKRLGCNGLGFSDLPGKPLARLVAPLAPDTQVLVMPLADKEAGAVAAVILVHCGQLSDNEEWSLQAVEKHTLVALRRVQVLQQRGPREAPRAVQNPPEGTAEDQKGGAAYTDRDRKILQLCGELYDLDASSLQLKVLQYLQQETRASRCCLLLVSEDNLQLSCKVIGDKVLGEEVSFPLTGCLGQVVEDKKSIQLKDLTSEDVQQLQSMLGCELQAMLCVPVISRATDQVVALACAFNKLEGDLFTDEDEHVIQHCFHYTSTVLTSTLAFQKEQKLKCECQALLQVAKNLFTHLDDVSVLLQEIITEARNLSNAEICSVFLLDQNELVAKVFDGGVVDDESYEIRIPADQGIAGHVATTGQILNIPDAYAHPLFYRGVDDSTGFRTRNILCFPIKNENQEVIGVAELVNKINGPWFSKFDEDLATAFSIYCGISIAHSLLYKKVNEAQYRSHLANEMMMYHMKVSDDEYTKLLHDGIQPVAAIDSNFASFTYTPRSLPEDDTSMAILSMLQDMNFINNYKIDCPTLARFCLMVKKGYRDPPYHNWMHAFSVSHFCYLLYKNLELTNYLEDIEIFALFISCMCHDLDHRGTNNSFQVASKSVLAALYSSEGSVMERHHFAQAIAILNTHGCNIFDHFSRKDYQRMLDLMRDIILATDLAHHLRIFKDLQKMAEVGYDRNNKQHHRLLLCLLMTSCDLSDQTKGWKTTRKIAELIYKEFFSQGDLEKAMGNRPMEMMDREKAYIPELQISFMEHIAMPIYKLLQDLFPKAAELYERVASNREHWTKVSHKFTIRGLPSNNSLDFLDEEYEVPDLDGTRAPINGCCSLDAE
Method in brief: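 Compound titrations run against PDE2 in Tris HCl pH 7.2 buffer with MgCl2 and DTT for 60 min at room temperature, using 50 nM FAM-cAMP plus 1000 nM cGMP and enzyme giving 20% conversion.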

[1] = Lab B, read-out: Rhesus PDE2 Ki (nM) Lab B
[2] = Lab B, read-out: Human PDE2 Ki (nM) Lab B
[3] = Lab A, read-out: Rhesus PDE2 Ki (nM) Lab A
[4] = Lab A, read-out: Human PDE2 Ki (nM) Lab A

Rhesus PDE2A3, sequence (B3VTJ2 1-941): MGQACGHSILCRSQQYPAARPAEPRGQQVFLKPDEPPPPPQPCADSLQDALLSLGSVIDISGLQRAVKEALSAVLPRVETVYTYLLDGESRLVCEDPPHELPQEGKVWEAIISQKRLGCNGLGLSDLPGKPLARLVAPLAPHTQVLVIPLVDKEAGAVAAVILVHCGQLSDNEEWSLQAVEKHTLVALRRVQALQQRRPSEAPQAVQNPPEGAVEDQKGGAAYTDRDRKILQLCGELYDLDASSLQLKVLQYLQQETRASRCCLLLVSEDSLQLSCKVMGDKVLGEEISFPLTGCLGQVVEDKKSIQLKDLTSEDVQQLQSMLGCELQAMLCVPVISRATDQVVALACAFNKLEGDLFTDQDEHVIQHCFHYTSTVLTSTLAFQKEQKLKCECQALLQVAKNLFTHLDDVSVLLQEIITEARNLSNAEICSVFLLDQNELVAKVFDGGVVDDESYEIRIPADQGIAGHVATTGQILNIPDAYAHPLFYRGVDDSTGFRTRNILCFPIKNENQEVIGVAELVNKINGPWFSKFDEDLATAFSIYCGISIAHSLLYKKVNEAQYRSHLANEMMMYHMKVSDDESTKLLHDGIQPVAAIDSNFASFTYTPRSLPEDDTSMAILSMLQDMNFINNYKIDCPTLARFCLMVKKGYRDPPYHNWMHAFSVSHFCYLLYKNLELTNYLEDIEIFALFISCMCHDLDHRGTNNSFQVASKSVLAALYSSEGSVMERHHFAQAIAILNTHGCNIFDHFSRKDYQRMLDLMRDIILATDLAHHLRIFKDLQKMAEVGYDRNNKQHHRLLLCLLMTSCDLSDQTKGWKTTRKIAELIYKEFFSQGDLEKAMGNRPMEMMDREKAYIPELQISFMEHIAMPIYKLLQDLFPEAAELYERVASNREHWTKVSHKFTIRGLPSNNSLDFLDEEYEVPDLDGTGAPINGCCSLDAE

| Ki (Rhesus PDE2A3; [1]) | Ki (human PDE2A1; [2]) | Ki (Rhesus PDE2A3; [3]) | Ki (human PDE2A1; [4]) | Structure (SMILES) |
| --- | --- | --- | --- | --- |
| 0.14 nM | 0.077 nM |  |  | CC(c1ccc(C(C)(F)F)cc1F)n1nc(CF)c2c(=O)[nH]c(N(C)C)nc21 (single isomer, unassigned) [Example 209, (S)- or (R)-1-(1-(4-(1,1-Difluoroethyl)-2-fluorophenyl)ethyl)-6-(dimethylamino)-3-(fluoromethyl)-1H-pyrazolo[3,4-d]pyrimidin-4(5H)-one] |
| 0.91 nM | 0.61 nM |  |  | CN(C)c1nc2c(c(CF)nn2C(c2ccc(C(C)(F)F)cc2)C2CC2)c(=O)[nH]1 (single isomer, unassigned) [Example 212, (R)- or (S)-1-(Cyclopropyl(4-(1,1-difluoroethyl)phenyl)methyl)-6-(dimethylamino)-3-(fluoromethyl)-1H-pyrazolo[3,4-d]pyrimidin-4(5H)-one] |
| 0.075 nM | 0.053 nM |  |  | CN(C)c1nc2c(c(CF)nn2C(c2ccc(C(C)(F)F)cc2)C2CC2)c(=O)[nH]1 (single isomer, unassigned) [Example 213, (S)- or (R)-1-(Cyclopropyl(4-(1,1-difluoroethyl)phenyl)methyl)-6-(dimethylamino)-3-(fluoromethyl)-1H-pyrazolo[3,4-d]pyrimidin-4(5H)-one] |
| 0.05 nM | 0.045 nM |  |  | CCC(c1ccc(C(C)(F)F)cc1F)n1nc(CF)c2c(=O)[nH]c(N(C)C)nc21 (single isomer, unassigned) [Example 214, (R)- or (S)-1-(1-(4-(1,1-Difluoroethyl)-2-fluorophenyl)propyl)-6-(dimethylamino)-3-(fluoromethyl)-1H-pyrazolo[3,4-d]pyrimidin-4(5H)-one] |
| 1.4 nM | 1.1 nM |  |  | CCC(c1ccc(C(C)(F)F)c(F)c1)n1nc(CF)c2c(=O)[nH]c(N(C)C)nc21 (single isomer, unassigned) [Example 216, (R)- or (S)-1-(1-(4-(1,1-Difluoroethyl)-3-fluorophenyl)propyl)-6-(dimethylamino)-3-(fluoromethyl)-1H-pyrazolo[3,4-d]pyrimidin-4(5H)-one] |
| 0.027 nM | 0.016 nM |  |  | CCC(c1ccc(C(C)(F)F)c(F)c1)n1nc(CF)c2c(=O)[nH]c(N(C)C)nc21 (single isomer, unassigned) [Example 217, (S)- or (R)-1-(1-(4-(1,1-Difluoroethyl)-3-fluorophenyl)propyl)-6-(dimethylamino)-3-(fluoromethyl)-1H-pyrazolo[3,4-d]pyrimidin-4(5H)-one] |
| 0.21 nM | 0.16 nM |  |  | CC(C)C(c1ccc(C(C)(F)F)c(F)c1)n1nc(CF)c2c(=O)[nH]c(N(C)C)nc21 (single isomer, unassigned) [Example 218, (R)- or (S)-1-(1-(4-(1,1-Difluoroethyl)-3-fluorophenyl)-2-methylpropyl)-6-(dimethylamino)-3-(fluoromethyl)-1H-pyrazolo[3,4-d]pyrimidin-4(5H)-one] |
| 0.03 nM | 0.022 nM |  |  | CC(C)C(c1ccc(C(C)(F)F)c(F)c1)n1nc(CF)c2c(=O)[nH]c(N(C)C)nc21 (single isomer, unassigned) [Example 219, (S)- or (R)-1-(1-(4-(1,1-Difluoroethyl)-3-fluorophenyl)-2-methylpropyl)-6-(dimethylamino)-3-(fluoromethyl)-1H-pyrazolo[3,4-d]pyrimidin-4(5H)-one] |
| 0.067 nM | 0.046 nM |  |  | CC(C)C(c1ccc(C(F)(F)F)c(F)c1)n1nc(CF)c2c(=O)[nH]c(N(C)C)nc21 (single isomer, unassigned) [Example 221, (S)- or (R)-6-Dimethylamino)-1-(1-(3-fluoro-4-trifluoromethyl)phenyl)-2-methylpropyl)-3-(fluoromethyl)-1H-pyrazolo[3,4-d]pyrimidin-4(5H)-one] |
| 0.063 nM | 0.044 nM |  |  | CCC(c1ccc(C(F)(F)F)c(F)c1)n1nc(CF)c2c(=O)[nH]c(N(C)C)nc21 (single isomer, unassigned) [Example 222, (R)- or (S)-6-(Dimethylamino)-1-(1-(3-fluoro-4-(trifluoromethyl)phenyl)propyl)-3-(fluoromethyl)-1H-pyrazolo[3,4-d]pyrimidin-4(5H)-one] |
| 1.5 nM | 1.4 nM |  |  | CC(c1ccc(C(F)(F)F)c(F)c1)n1nc(CC(F)(F)F)c2c(=O)[nH]c(O)nc21 (single isomer, unassigned) [Example 235, (S)- or (R)-1-(1-(3-Fluoro-4-(triduoromethyl)phenyl)ethyl)-6-hydroxy-3-(2,2,2-trifluoroethyl)-1H-pyrazolo[3,4-d]pyrimidin-4(5H)-one] |
| 5 nM | 3.4 nM |  |  | CC(c1ccc(C(C)(C)C)cc1)n1nc(CC(F)(F)F)c2c(=O)[nH]c(O)nc21 (single isomer, unassigned) [Example 236, (R)- or (S)-1-(1-(4-tert-Butylphenyl)ethyl)-6-hydroxy-3-(2,2,2-trifluoroethyl)-1H-pyrazolo[3,4-d]pyrimidin-4(5H)-one] |
| 7.1 nM | 5.8 nM |  |  | O=c1[nH]c(O)nc2c1c(CC(F)(F)F)nn2C(c1ccc(C(F)(F)F)c(F)c1)C1CC1 (single isomer, unassigned) [Example 238, (R)- or (S)-1-(Cyclopropyl(3-fluoro-4-(trifluoromethyl)phenyl)methyl)-6-hydroxy-3-(2,2,2-trifluoroethyl)-1H-pyrazolo[3,4-d]pyrimidin-4(5H)-one] |
| 11 nM | 8 nM |  |  | CC(C)C(c1ccc(C(F)(F)F)cc1)n1nc(CC(F)(F)F)c2c(=O)[nH]c(O)nc21 (single isomer, unassigned) [Example 240, (R)- or (S)-6-Hxdroxy-1-(2-methyl-1-(4-(trifluoromethyl)phenyl)propyl)-3-(2,2,2-trifluoroethyl)-1H-pyrazolo[3,4-d]pyrimidin-4(5H)-one] |
| 21 nM | 21 nM |  |  | CC1(C(c2ccc(C(F)(F)F)cc2)n2nc(CC(F)(F)F)c3c(=O)[nH]c(O)nc32)CC1 (single isomer, unassigned) [Example 244, (R)- or (S)-6-Hydroxy-1-((1-methylcyclopropyl)(4-(trifluoromethyl)phenyl)methyl)-3-(2,2,2-trifluoroethyl)-1H-pyrazolo[3,4-d]pyrimidin-4(5H)-one] |
| 26 nM | 27 nM |  |  | CC(C)(C)c1ccc(C(C2CC2)n2nc(CC(F)(F)F)c3c(=O)[nH]c(O)nc32)cc1 (single isomer, unassigned) [Example 250, (R)- or (S)-1-((4-tert-Butylphenyl)(cyclopropyl)methyl)-6-hydroxy-3-(2,2,2-trifluoroethyl)-1H-pyrazolo(3,4-d]pyrimidin-4(5H)-one] |
| 68 nM | 73 nM |  |  | O=c1[nH]c(O)nc2c1c(CC(F)(F)F)nn2C(c1ccc(OC(F)(F)F)c(F)c1)C1CC1 (single isomer, unassigned) [Example 252, (R)- or (S)-1-(Cyclopropyl(3-fluoro-4-(trifluoromethoxy)phenyl)methyl)-6-hydroxy-3-(2,2,2-trifluoroethyl)-1H-pyrazolo[3,4-d]pyrimidin-4(5H)-one] |
| 102 nM | 121 nM |  |  | CC(c1ccc(C(F)(F)F)cc1)n1nc(C(F)(F)F)c2c(=O)[nH]c(O)nc21 (single isomer, unassigned) [Example 254, (R)- or (S)-6-Hydroxy-3-(trifluoromethyl)-1-(1-(4-(trifluoromethyl)phenyl)ethyl)-1H-pyrazolo[3,4-d]pyrimidin-4(5H)-one] |
| 3.7 nM | 2.4 nM |  |  | CC(c1ccc(C(F)(F)F)cc1)n1nc(C(F)(F)F)c2c(=O)[nH]c(O)nc21 (single isomer, unassigned) [Example 255, (S)- or (R)-6-Hydroxy-3-(trifluoromethyl)-1-(1-(4-(trifluoromethyl)phenyl)ethyl)-1H-pyrazolo[3,4-d]pyrimidin-4(5H)-one] |
|  |  | 166 nM | 126 nM | CC(c1ccc(C(F)(F)F)cc1)n1nc(CC(F)(F)F)c2c(=O)[nH]c(O)nc21 (single isomer, unassigned) [Example 256, (R)- or (S)-6-Hydroxy-3-(2,2,2-trifluoroethyl)-1-{1-[4-(trifluoromethyl)phenyl]ethyl}-1,5-dihydro-4H-pyrazolo[3,4-d]pyrimidin-4-one] |
| 1.5 nM | 2 nM | 0.96 nM | 0.68 nM | CC(c1ccc(C(F)(F)F)cc1)n1nc(CC(F)(F)F)c2c(=O)[nH]c(O)nc21 (single isomer, unassigned) [Example 257, (S)- or (R)-6-Hydroxy-3-(2,2,2-trifluoroethyl)-1-{1-(4-(trifluoromethyl)phenyl]ethyl}-1,5-dihydro-4H-pyrazolo[3,4-d]pyrimidin-4-one] |
| 10 nM | 9.7 nM |  |  | CC(C)C(c1ccc(C(F)(F)F)c(F)c1)n1nc(CC(F)(F)F)c2c(=O)[nH]c(O)nc21 (single isomer, unassigned) [Example 258] |
| 26 nM | 25 nM |  |  | CC(C)C(c1ccc(C(C)(C)C)cc1)n1nc(CC(F)(F)F)c2c(=O)[nH]c(O)nc21 (single isomer, unassigned) [Example 260, (R)- or (S)-1-(1-(4-tert-Butylphenyl)-2-methylpropyl)-6-hydroxy-3-(2,2,2-trifluoroethyl)-1H-pyrazolo[3,4-d]pyrimidin-4(5H)-one] |
| 14 nM | 13 nM |  |  | CC(c1ccc(C(F)(F)F)cc1)n1nc(C(F)(F)C(F)(F)F)c2c(=O)[nH]c(O)nc21 (single isomer, unassigned) [Example 266, (R)- or (S)-6-Hydroxy-3-(perfluoroethyl)-1-(1-(4-(trifluoromethyl)phenyl)ethyl)-1H-pyrazolo[3,4-d]pyrimidin-4(5H)-one] |
